US9469645B2, “Compounds and compositions for the treatment of parasitic diseases” (Novartis AG, priority 2009, dated 2016)
Read-outs that look alike come from different tables or passages of the source.

Key:
[1] = test system: 3D7 P. falciparum strain; test: parasite proliferation assay in infected red blood cells (SYBR Green I); format: cell-based, Plasmodium falciparum; details: Plasmodium falciparum, 3D7, Erythrocyte, read-out: EC50 3D7 strain
Source text: (§1) Compounds of the invention can be assayed to measure their capacity to inhibit proliferation of parasitemia in infected red blood cells. The proliferation is quantified by the addition of SYBR Green I (INVITROGEN)® dye which has a high affinity for double stranded DNA.
The following assay illustrates the invention without in any way limiting the scope of the invention. This parasite proliferation assay measures the increase in parasite DNA content using a DNA intercalating dye, SYBR Green®.
3D7 P. falciparum strain is grown in complete culturing media until parasitemia reaches 3% to 8% with O+ human erythrocytes. 20 μl of screening media is dispensed into 384 well assay plates. […] 10 μl of lysis buffer (saponin, triton-X, EDTA) containing a 10× solution of SYBR Green I® in RPMI media is dispensed into the plates. The plates are lidded and kept at room temperature overnight for the lysis of the infected red blood cells.

[2] = test system: W2 strain; test: parasite proliferation assay in infected red blood cells (SYBR Green I), W2 strain; format: cell-based; details: Erythrocyte
Source text: as §1

Structure (SMILES) | EC50 ([1]; 3D7 strain) [µM] | also measured
CC1CCCCC1Nc1c(-c2ccc(F)cc2)nc2n1CCN(C(=O)CN)C2(C)C (stereo not shown) [Compound 664] | 3.69 | EC50 ([2]; Plasmodium falciparum): 4.08 µM
CC1(C)c2nc(-c3ccc(F)cc3)c(Nc3ccc(C(F)(F)F)c(Cl)c3)n2CCN1C(=O)CN [Compound 658] | 0.005 | EC50 ([2]; Plasmodium falciparum): 0.006 µM
CCCCN[C@H](C(=O)N1CCn2c(nc(-c3ccc(F)cc3)c2Nc2ccc(C)cc2)C1)c1ccccc1 [Compound 295] | 0.21 | EC50 [2]: 0.283 µM
O=C(Cc1ccc(F)c(C(F)(F)F)c1)N1CCn2c(nc(-c3ccc(F)cc3)c2Nc2ccc(Cl)c(F)c2)C1 [Compound 335] | 2.3 | 
COc1ccc(CN2Cc3nc(-c4ccc(F)cc4)c(Nc4ccc(Cl)c(C)c4)n3C(C)(C)C2=O)cc1 [Compound 614] | 5.02 | EC50 ([2]; Plasmodium falciparum): 4.52 µM
CCC(=O)NCc1ccc(C[C@H](N)C(=O)N2CCn3c(nc(-c4ccc(F)cc4)c3Nc3ccc(C)cc3)C2)cc1 [Compound 219] | 4.97 | EC50 [2]: 3.41 µM
CC(C)(N)C(=O)N1CCn2c(nc(-c3ccc(F)cc3)c2Nc2ccc(Br)cc2)C1 [Compound 21] | 0.1 | EC50 [2]: 0.078 µM
Cc1ccc(Nc2c(-c3ccc(F)cc3)nc3n2CCN(C(=O)C(O)(c2ccccc2)c2ccccc2)C3)cc1 [Compound 112] |  | EC50 [1]: 1.43 µM
CC[C@H](N)C(=O)N1CCn2c(nc(-c3ccc(F)cc3)c2Nc2ccc(Cl)c(F)c2)C1 [Compound 393] | 0.02 | 
COCCOCC(=O)N1CCn2c(nc(-c3ccc(F)cc3)c2Nc2ccc(C)cc2)C1 [Compound 351] | 1.24 | 
CC(C)C[C@H](N)C(=O)N1CCn2c(nc(-c3ccc(F)cc3)c2Nc2ccc(Cl)c(F)c2)C1 [Compound 322] | 0.04 | 
CCCCC(=O)OC(C(=O)N1CCn2c(nc(-c3ccc(F)cc3)c2Nc2ccc(C)cc2)C1)c1ccccc1 (stereo not shown) [Compound 270] | 0.05 | 
O=C1CC(C(=O)N2CCn3c(nc(-c4ccc(F)cc4)c3Nc3ccc(Cl)c(F)c3)C2)CCN1 (stereo not shown) [Compound 337] | > 10 | 
Cc1ccc(Sc2c(-c3ccc(F)cc3)nc3n2CCN(C(=O)CN)C3(C)C)cc1 [Compound 713, 2-amino-1-(2-(4-fluorophenyl)-8,8-dimethyl-3-(p-tolylthio)-5,6-dihydroimidazo[1,2-a]pyrazin-7(8H)-yl)ethanone] | 0.008 | 
Cc1ccc(Nc2c(-c3ccc(F)cc3)nc3n2CCN(C(=O)[C@@H](O)Cc2ccccc2)C3)cc1 [Compound 106] |  | EC50 [2]: 0.004 µM
Cc1ccc(Nc2c(-c3ccc(F)cc3)nc3n2CCN(C(=O)[C@@H](N)C(C)C)C3)cc1 [Compound 169] | 0.04 | 
Cc1ccc(Nc2c(-c3ccc(F)cc3)nc3n2CCN(C(=O)CCO)C3)cc1 [Compound 103] | 1.02 | 
COc1ccc(CSC[C@@H](N)C(=O)N2CCn3c(nc(-c4ccc(F)cc4)c3Nc3ccc(Cl)c(F)c3)C2)cc1 [Compound 346] | > 8.8 | 
Cc1ccc(Nc2c(-c3cc(F)ccc3F)nc3n2CCNC3)cc1 [Compound 330] | 4.47 | 
O=C([C@H]1Cc2ccccc2CN1)N1CCn2c(nc(-c3ccc(F)cc3)c2Nc2ccc(Cl)c(F)c2)C1 [Compound 347] | 5.92 | 

Structure (SMILES) | EC50 ([1]; 3D7 strain) [µM] | also measured
CN[C@H](CC(C)C)C(=O)N1CCn2c(nc(-c3ccc(F)cc3)c2Nc2ccc(C)cc2)C1 [Compound 377] |  | EC50 [2]: 0.574 µM
O=C([C@@H]1CCCN1)N1CCn2c(nc(-c3ccc(F)cc3)c2Nc2ccc(Cl)c(F)c2)C1 [Compound 338] | 0.19 | 
O=C([C@H]1CCCN1)N1CCn2c(nc(-c3ccc(F)cc3)c2Nc2ccc(Cl)c(F)c2)C1 [Compound 340] | 0.2 | 
O=C(CN1CCC(C(F)(F)F)CC1)N1CCn2c(nc(-c3ccc(F)cc3)c2Nc2ccc(F)cc2)C1 [Compound 61] | 9.24 | 
NC(CC(=O)N1CCn2c(nc(-c3ccc(F)cc3)c2Nc2ccc(Cl)c(F)c2)C1)C(F)(F)F (stereo not shown) [Compound 339] | 0.52 | 
Cc1ccc(Nc2c(-c3ccc(F)cc3)nc3n2CCN(C(=O)C2CCCO2)C3)cc1 (stereo not shown) [Compound 200] | 0.91 | 
Cc1ccc(Nc2c(-c3ccc(F)cc3)nc3n2CCN(C(=O)CC(C)O)C3)cc1 (stereo not shown) [Compound 108] | 0.96 | 
NCC(=O)N1CCn2c(nc(-c3ccc(F)cc3)c2Nc2ccc(F)c(Cl)c2)C1 [Compound 78] | 0.01 | 
N[C@@H](CC1CC1)C(=O)N1CCn2c(nc(-c3ccc(F)cc3)c2Nc2ccc(F)cc2)C1 [Compound 466] | 0.03 | 
CC(C)(N)C(=O)N1CCn2c(nc(-c3cccc(F)c3)c2Nc2ccc(F)c(C#N)c2)C1 [Compound 353] | 0.21 | 
Cc1ccc(Nc2c(-c3ccc(F)cc3)nc3n2CCN(C(=O)[C@H]2CCC[C@@H]2O)C3)cc1 [Compound 105] | 0.85 | 
CN(c1ccc(Cl)c(F)c1)c1c(-c2ccc(F)cc2)nc2n1CCN(C(=O)CN)C2 [Compound 293] | 0.02 | 
Cc1ccc(Nc2c(-c3ccc(F)cc3)nc3n2CCN(C(=O)C(C)(O)c2ccccc2)C3)cc1 (stereo not shown) [Compound 111] | 0.02 | 
O=C([C@@H](O)Cc1ccccc1)N1CCn2c(nc(-c3ccc(F)cc3)c2Nc2ccc(Cl)c(F)c2)C1 [Compound 334] | 0.05 | 
NC(C(=O)N1CCn2c(nc(-c3ccc(F)cc3)c2Nc2ccc(Cl)c(F)c2)C1)C(F)(F)F (stereo not shown) [Compound 194] | 0.05 | 
Fc1ccc(-c2nc3n(c2Nc2ccc(F)c(F)c2)CCNC3)cc1 [Compound 331, N-(3,4-difluorophenyl)-2-(4-fluorophenyl)-5,6,7,8-tetrahydroimidazo[1,2-a]pyrazin-3-amine] | 0.14 | 
Cc1ccc(Nc2c(-c3ccc(F)cc3)nc3n2CCN(C(=O)C(O)c2cc(F)cc(F)c2)C3)cc1 (stereo not shown) [Compound 123] | 0.03 | 
O=C(COc1ccccc1)N1CCn2c(nc(-c3ccc(F)cc3)c2Nc2ccc(Cl)c(F)c2)C1 [Compound 336] | 0.04 | 
Cc1ccc(Nc2c(-c3ccc(F)cc3)nc3n2CCN(C(=O)C(O)c2ccc(O)cc2)C3)cc1 (stereo not shown) [Compound 130] | 0.01 | 
CO[C@@H](C)C(=O)N1CCn2c(nc(-c3ccc(F)cc3)c2Nc2ccc(C)cc2)C1 [Compound 198] | 1.36 | 

Structure (SMILES) | EC50 ([1]; 3D7 strain) [µM] | also measured
O=C(Cc1ccccc1OC(F)(F)F)N1CCn2c(nc(-c3ccc(F)cc3)c2Nc2ccc(Cl)c(F)c2)C1 [Compound 333] | 1.11 | 
O=C(C1NCc2ccccc21)N1CCn2c(nc(-c3ccc(F)cc3)c2Nc2ccc(Cl)c(F)c2)C1 (stereo not shown) [Compound 342] | 5.24 | 
CC[C@H](C)[C@H](N)C(=O)N1CCn2c(nc(-c3ccc(F)cc3)c2Nc2ccc(Cl)c(F)c2)C1 [Compound 317] | 0.02 | 
Cc1ccc(Nc2c(-c3ccc(F)cc3)nc3n2CCN(C(=O)[C@H](O)C(C)C)C3)cc1 [Compound 205] |  | EC50 [2]: 0.004 µM
CCCCOCCOCC(=O)N1CCn2c(nc(-c3ccc(F)cc3)c2Nc2ccc(C)cc2)C1 [Compound 349] | 7.48 | 
CCOCC(=O)N1CCn2c(nc(-c3ccc(F)cc3)c2Nc2ccc(C)cc2)C1 [Compound 350] | 0.66 | 
Cc1ccc(Nc2c(-c3ccc(F)cc3)nc3n2CC(C)N(C(=O)CN)C3)cc1 (stereo not shown) [Compound 352] | 0.01 | 
Cc1ccc(Nc2c(-c3ccc(F)cc3)nc3n2CCN(C(=O)C(C)(C)C(O)c2ccc(C)cc2)C3)cc1 (stereo not shown) [Compound 119] | 4.74 | 
CC(C)(N)C(=O)N1CCn2c(nc(-c3ccc(F)cc3)c2Nc2ccc(F)c(Cl)c2)C1 [Compound 492] | 0.05 | 
Cc1ccc(Nc2c(-c3ccc(F)cc3)nc3n2CCN(C(=O)[C@H](O)Cc2ccccc2)C3)cc1 [Compound 109] | 0.04 | 
Cc1ccc([S+]([O-])c2c(-c3ccc(F)cc3)nc3n2CCN(C(=O)CN)C3(C)C)cc1 (stereo not shown) [Compound 721, 2-amino-1-(2-(4-fluorophenyl)-8,8-dimethyl-3-(p-tolylsulfinyl)-5,6-dihydroimidazo[1,2-a]pyrazin-7 (8H)-yl)ethanone] | 0.042 | 
O=C([C@@H]1Cc2ccccc2N1)N1CCn2c(nc(-c3ccc(F)cc3)c2Nc2ccc(Cl)c(F)c2)C1 [Compound 343] | 7.5 | 
Cc1ccc(C[C@H](N)C(=O)N2CCn3c(nc(-c4ccc(F)cc4)c3Nc3ccc(Cl)c(F)c3)C2)cc1 [Compound 341] | 0.01 | 
O=C(C(Nc1ccccc1)c1ccccc1)N1CCn2c(nc(-c3ccc(F)cc3)c2Nc2ccc(Cl)c(F)c2)C1 (stereo not shown) [Compound 332] | 1.04 | 
NC(CC(F)(F)F)C(=O)N1CCn2c(nc(-c3ccc(F)cc3)c2Nc2ccc(Cl)c(F)c2)C1 (stereo not shown) [Compound 348] | 0.05 | 
Fc1ccc(-c2nc3n(c2Nc2ccc(F)c(Cl)c2)CCNC3)cc1 [Compound 447] | 0.23 | 
N[C@H](CC(=O)N1CCn2c(nc(-c3ccc(F)cc3)c2Nc2ccc(Cl)c(F)c2)C1)Cc1ccc(Br)cc1 [Compound 344] | 0.21 | 
Cc1ccc(Nc2c(-c3ccc(F)cc3)nc3n2CCN(C(=O)C(O)c2ccccc2)C3)cc1 (stereo not shown) [Compound 82] |  | EC50 [2]: 0.007 µM
